Patent publication US9708314B2, “Heterocyclic amide compound” (NISSAN CHEMICAL INDUSTRIES, LTD., priority 2013, dated 2017)

Assays:
Format in all cases: in vivo
[1] = test system: transplanted Oryza sativa; assay: Test Example 1: effect on crop, application before weed generation in submerged conditions; conditions: Application herbicide amount 320 g/ha; Seventeenth Table
Summary of the method: (§1)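 Pre-emergence water-surface application under 4 cm flooding, same day as sowing, with rice transplanted at 2.5 leaf stage. Dose given as g/ha. Plants grown at 25° C. to 30° C. and rated three weeks later on a 0 (≤5%) to 5 (≥90%) herbicidal-ratio scale.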

[2] = test system: directly sowed Oryza sativa; assay: Test Example 3: effect on crop by application to foliage (Wagner pot, water depth 0.1-0.5 cm); conditions: Nineteenth Table; application to foliage; application herbicide amount 320 g/ha
Summary of the method: (§2)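 Three weeks after spraying, each species was graded 0–5 for herbicidal ratio, 5 being 90% or more. Application: water-diluted emulsifiable concentrate at a fixed g/ha to foliage of 14-day-old greenhouse (25–30 °C) plants in alluvial soil.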

[3] = test system: Echinochloa oryzacola Vasing.; assay: Test Example 1: herbicidal activity, application before weed generation in submerged conditions; conditions: Application herbicide amount 320 g/ha; Seventeenth Table
Summary of the method: as §1

Monochoria vaginalis = assay: as above; conditions: Application herbicide amount 320 g/ha; Seventeenth Table
Summary of the method: as §1

Scirpus juncoides = assay: as above; conditions: Application herbicide amount 320 g/ha; Seventeenth Table
Summary of the method: as §1

[4] = test system: Echinochloa crus-galli var. crus-galli; assay: Test Example 3: herbicidal effect by application to foliage (Wagner pot, water depth 0.1-0.5 cm); conditions: Nineteenth Table; application to foliage; application herbicide amount 320 g/ha
Summary of the method: as §2

Leptochloa chinensis = assay: as above; conditions: Nineteenth Table; application to foliage; application herbicide amount 320 g/ha
Summary of the method: as §2

Cyperus difformis = assay: as above; conditions: Nineteenth Table; application to foliage; application herbicide amount 320 g/ha
Summary of the method: as §2

Compound	a: transplanted Oryza sativa (effect on crop grade) [1]	b (effect on crop grade) [2]	A: Echinochloa oryzicola Vasing. (herbicidal effect grade) [3]	C: Monochoria vaginalis (herbicidal effect grade) (Monochoria vaginalis)	B: Scirpus juncoides (herbicidal effect grade) (Scirpus juncoides)	H (herbicidal effect grade) [4]	D (herbicidal effect grade) (Leptochloa chinensis)	E (herbicidal effect grade) (Cyperus difformis)
C#CC[S+]([O-])c1nnc2c(C(=O)Nc3nnc(C)o3)ccc(C(F)(F)F)n12 (centres unmarked) [1-077]	0 (Herbicidal ratio of 5% or less (almost no effect))	0 (Herbicidal ratio of 5% or less (almost no effect))	0 (Herbicidal ratio of 5% or less (almost no effect))	2 (Herbicidal ratio of 20% or more and less than 40%)	0 (Herbicidal ratio of 5% or less (almost no effect))	5 (Herbicidal ratio of 90% or more (almost completely withered))	4 (Herbicidal ratio of 70% or more and less than 90%)	3 (Herbicidal ratio of 40% or more and less than 70%)
Cc1cc(-c2nnc3c(C(=O)Nc4nnc(C)o4)ccc(C(F)(F)F)n23)n(C)n1 [1-056]	3 (Herbicidal ratio of 40% or more and less than 70%)	4 (Herbicidal ratio of 70% or more and less than 90%)	5 (Herbicidal ratio of 90% or more (almost completely withered))	4 (Herbicidal ratio of 70% or more and less than 90%)	5 (Herbicidal ratio of 90% or more (almost completely withered))	5 (Herbicidal ratio of 90% or more (almost completely withered))	5 (Herbicidal ratio of 90% or more (almost completely withered))	5 (Herbicidal ratio of 90% or more (almost completely withered))
Cc1nnc(NC(=O)c2ccc(C(F)(F)F)n3c(SCC(C)C)nnc23)o1 [1-093]	0 (Herbicidal ratio of 5% or less (almost no effect))	1 (Herbicidal ratio of 5% or more and less than 20%)	5 (Herbicidal ratio of 90% or more (almost completely withered))	3 (Herbicidal ratio of 40% or more and less than 70%)	4 (Herbicidal ratio of 70% or more and less than 90%)	4 (Herbicidal ratio of 70% or more and less than 90%)	5 (Herbicidal ratio of 90% or more (almost completely withered))	4 (Herbicidal ratio of 70% or more and less than 90%)
CC(C)Sc1nnc2c(C(=O)Nc3nnco3)ccc(C(F)(F)F)n12 [1-091]	0 (Herbicidal ratio of 5% or less (almost no effect))	0 (Herbicidal ratio of 5% or less (almost no effect))	5 (Herbicidal ratio of 90% or more (almost completely withered))	5 (Herbicidal ratio of 90% or more (almost completely withered))	5 (Herbicidal ratio of 90% or more (almost completely withered))	5 (Herbicidal ratio of 90% or more (almost completely withered))	5 (Herbicidal ratio of 90% or more (almost completely withered))	5 (Herbicidal ratio of 90% or more (almost completely withered))
Cc1nnc(NC(=O)c2ccc(C(F)(F)F)n3c(CC[S+](C)[O-])nnc23)o1 (centres unmarked) [1-084]	0 (Herbicidal ratio of 5% or less (almost no effect))	2 (Herbicidal ratio of 20% or more and less than 40%)	2 (Herbicidal ratio of 20% or more and less than 40%)	2 (Herbicidal ratio of 20% or more and less than 40%)	3 (Herbicidal ratio of 40% or more and less than 70%)	5 (Herbicidal ratio of 90% or more (almost completely withered))	5 (Herbicidal ratio of 90% or more (almost completely withered))	5 (Herbicidal ratio of 90% or more (almost completely withered))
CCC[S+]([O-])c1nnc2c(C(=O)Nc3nnc(C)o3)ccc(C(F)(F)F)n12 (centres unmarked) [1-092]	3 (Herbicidal ratio of 40% or more and less than 70%)	4 (Herbicidal ratio of 70% or more and less than 90%)	5 (Herbicidal ratio of 90% or more (almost completely withered))	4 (Herbicidal ratio of 70% or more and less than 90%)	5 (Herbicidal ratio of 90% or more (almost completely withered))	5 (Herbicidal ratio of 90% or more (almost completely withered))	5 (Herbicidal ratio of 90% or more (almost completely withered))	5 (Herbicidal ratio of 90% or more (almost completely withered))
COCC[S+]([O-])c1nnc2c(C(=O)Nc3nnc(C)o3)ccc(C(F)(F)F)n12 (centres unmarked) [1-073]	3 (Herbicidal ratio of 40% or more and less than 70%)	4 (Herbicidal ratio of 70% or more and less than 90%)	4 (Herbicidal ratio of 70% or more and less than 90%)	2 (Herbicidal ratio of 20% or more and less than 40%)	3 (Herbicidal ratio of 40% or more and less than 70%)	5 (Herbicidal ratio of 90% or more (almost completely withered))	5 (Herbicidal ratio of 90% or more (almost completely withered))	5 (Herbicidal ratio of 90% or more (almost completely withered))
CC(C)c1nnc2c(C(=O)Nc3nnc(C(F)(F)F)o3)ccc(C(F)(F)F)n12 [1-100]	0 (Herbicidal ratio of 5% or less (almost no effect))	0 (Herbicidal ratio of 5% or less (almost no effect))	4 (Herbicidal ratio of 70% or more and less than 90%)	3 (Herbicidal ratio of 40% or more and less than 70%)	3 (Herbicidal ratio of 40% or more and less than 70%)	5 (Herbicidal ratio of 90% or more (almost completely withered))	5 (Herbicidal ratio of 90% or more (almost completely withered))	4 (Herbicidal ratio of 70% or more and less than 90%)
Cc1nnc(NC(=O)c2ccc(C(F)(F)F)n3c(-c4ccc(Cl)nc4)nnc23)o1 [1-054]	2 (Herbicidal ratio of 20% or more and less than 40%)	3 (Herbicidal ratio of 40% or more and less than 70%)	5 (Herbicidal ratio of 90% or more (almost completely withered))	4 (Herbicidal ratio of 70% or more and less than 90%)	3 (Herbicidal ratio of 40% or more and less than 70%)	5 (Herbicidal ratio of 90% or more (almost completely withered))	5 (Herbicidal ratio of 90% or more (almost completely withered))	5 (Herbicidal ratio of 90% or more (almost completely withered))
COc1ccc(Cc2nnc3c(C(=O)Nc4nnc(C)o4)ccc(C(F)(F)F)n23)cc1 [1-069]	0 (Herbicidal ratio of 5% or less (almost no effect))	1 (Herbicidal ratio of 5% or more and less than 20%)	5 (Herbicidal ratio of 90% or more (almost completely withered))	3 (Herbicidal ratio of 40% or more and less than 70%)	4 (Herbicidal ratio of 70% or more and less than 90%)	5 (Herbicidal ratio of 90% or more (almost completely withered))	5 (Herbicidal ratio of 90% or more (almost completely withered))	5 (Herbicidal ratio of 90% or more (almost completely withered))
